Laboratory results from patent US20240335395A1, “COMPOSITIONS AND METHODS FOR PREVENTING AND/OR TREATING DISEASE ASSOCIATED WITH IL-23 EXPRESSION” (ALLSPIM, priority 2021, published 2024).

What was measured:
[1] = system: IL-17/IL-23 and TNF signaling pathway-associated cytokine genes and chemokine genes; test: Transcription of IL-17/IL-23 and TNF signature genes in LPS-stimulated THP-1 cells (qPCR); format: cell-based, human; conditions: 2 h; 2,4-D 5-20 μM, DEX 20-80 ng/ml
Experimental: Sample Collection and Preparation. THP-1 cells, a human leukemia monocyte-derived cell line, have been widely used as a model to study the modulation of the immune response and the function of monocytes and monocyte-derived macrophages. Here, lipopolysaccharide (LPS)-stimulated THP-1 cells were used as a model to study the cytokine storm in vitro (Chanput et al., 2014). THP-1 cells (purchased from American Type Culture Collection, Rockville, MD) were grown in RPMI 1640 culture medium (Gibco) supplemented with 10% fetal bovine serum (FBS) (Gibco, UK), 0.05 mM 2-mercaptoethanol, and 1% penicillin/streptomycin (Invitrogen) at 37° C. in 5% CO2 in a humidified incubator. Cultured cells were plated into culture plates in appropriate volumes with a cell density of 5×10^5 cells/ml. 2,4-D was purchased from Wuhan ChemFaces Biochemical Co., Ltd (Hubei, China) and tested for cytotoxicity in THP-1 cells overnight using a commercial MTT Cell Proliferation and Cytotoxicity Assay Kit (Beyotime, Shanghai, China). […]
Real-Time Quantitative PCR. Real-time quantitative PCR was performed in triplicate using the TB Green qPCR master mix (Takara Biomedical Technology Co., Ltd, Dalian, China) on an ABI 7500 Real-Time PCR System (Thermo, USA). […] The ΔΔCT method was used to quantify relative mRNA levels as described above in Example 1 (Applied Biosystems). Data are expressed as mean±SD. […]

Solubility in water = format: physicochemical
IL-17 = IL-17 gene expression in RA-patient synovial cells (RT-qPCR); format: cell-based, human; conditions: 2 h
Experimental: Synovial fluid was freshly collected from 20 patients with rheumatoid arthritis (RA) by arthrocentesis. At two hours after treatment or not with 2,4-D, RA-patient synovial cells were directly lysed using TRIzol reagent (Invitrogen, USA) followed by RNA extraction according to the manufacturer's protocol. Finally, RNA was dissolved in 10 μL DEPC-treated water, quantified on a NanoDrop 2000 spectrophotometer (Thermo Scientific Inc., USA), and reverse-transcribed using the Super Script III First-Strand Synthesis System for RT-PCR kit (Thermo Scientific, USA) according to the manufacturer's protocol. PCR was performed in duplicate using SYBR Green qPCR master mix (Takara Biomedical Technology Co., Ltd, Dalian, China) on an ABI 7500 Real-Time PCR System (Thermo, USA). The cycling program was as follows: denaturation at 95° C. for 15 s, 40 cycles of 95° C. for 15 s and extension at 60° C. for 60 s, followed by melt curve generation. The ΔΔCT method was used to quantify relative mRNA levels as described in Example 1 above. The primer sequences specific for human IL-17 genes (hu-IL-17 Forward: 5′-[…]-3′; hu-IL-17 Reverse: 5′-GGCACTTTGCCTCCCAGAT-3′) (SEQ ID NOs 8 and 9, respectively) and IL-23 (see Example 1, above) were used.

## COc1cc(O)c(OC)c(O)c1C(=O)/C=C/c1ccccc1 [2,4-D, 2′,4′-dihydroxy-3′,6′-dimethoxychalcone]
[1]
  suppression of transcription of IL-17/IL-23 and TNF signatures: 63-143 fold
Solubility in water
  solubility in water: Low solubility
IL-17; 1 μg/ml
  decrease of IL-17 expression: 23 fold
IL-17; 5 μg/ml
  inhibition of IL-17 expression: 60 fold
